Some test systems named below: UACC-62 melanoma; HOP-92 NSCLC; HCT-15 colon; SK-MEL-5 melanoma; NCI/ADR-RES ovarian; CAKI-1 renal; U251 CNS; PC-3 prostate; SK-MEL-2 melanoma; HOP-62 NSCLC; SNB-75 CNS; IGROV1 ovarian; OVCAR-8 ovarian; SR leukemia; SK-OV-3 ovarian; UO-31 renal; K-562 leukemia.
What all share (test): DTP human tumour cell line panel, 48 h

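Results reflect a 48-hour exposure of cells in 96-well plates to compound at five concentrations. TGI denotes the concentration required for complete inhibition of growth.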

Usually TGI stands for the concentration giving total growth inhibition.

With `O=C1NC(=O)C23C(=O)NC(=O)C12C1C=CC3CC1` (stereo not drawn), the TGI in the assay on UACC-62 melanoma, in the assay with HOP-92 NSCLC, in the assay with HCT-15 colon, in the assay with SK-MEL-5 melanoma, in the assay with NCI/ADR-RES ovarian and in the assay with CAKI-1 renal was above 10 µM throughout. Besides, the concentration for total growth inhibition (TGI) in the assay with U251 CNS, in the assay with PC-3 prostate, with SK-MEL-2 melanoma, with HOP-62 NSCLC, with SNB-75 CNS and with IGROV1 ovarian was above 10 µM in each case. For the same compound, the TGI in the assay with OVCAR-8 ovarian, in the assay on SR leukemia, in the assay with SK-OV-3 ovarian, in the assay with UO-31 renal and in the assay on K-562 leukemia was above 10 µM in each case.
Turning to `COC(=O)C1=C(C(=O)OC)N(c2ccncc2)C(c2ccco2)=CC1c1ccccc1[N+](=O)[O-]` (stereo not drawn), the TGI came out at 27 µM in the assay with UACC-62 melanoma; 32.4 µM in the assay on HOP-92 NSCLC; 5.58 µM with HCT-15 colon; 56.1 µM in the assay on NCI/ADR-RES ovarian; 31.6 µM in the assay on CAKI-1 renal; 10.7 µM in the assay with U251 CNS. For the same compound, the TGI with PC-3 prostate is 31 µM; in the assay on SK-MEL-2 melanoma it was 36.1 µM; in the assay on HOP-62 NSCLC, above 46.2 µM; in the assay on SNB-75 CNS, 16.3 µM; with IGROV1 ovarian it was 4.19 µM; with OVCAR-8 ovarian, 28.8 µM. Further, the TGI is 5.26 µM in the assay with SR leukemia, 33.1 µM with SK-OV-3 ovarian, 8.21 µM in the assay with UO-31 renal and above 100 µM in the assay with K-562 leukemia.
Turning to `CC(=S)NC=C(C(N)=O)C(N)=O`, the TGI in the assay on UACC-62 melanoma, in the assay with HOP-92 NSCLC, in the assay on HCT-15 colon, in the assay on SK-MEL-5 melanoma, in the assay with NCI/ADR-RES ovarian and in the assay on CAKI-1 renal was above 100 µM throughout. Moreover, the TGI in the assay with U251 CNS, in the assay with PC-3 prostate, in the assay with SK-MEL-2 melanoma, with HOP-62 NSCLC, in the assay on SNB-75 CNS and in the assay on IGROV1 ovarian was above 100 µM in each case. In addition, the TGI with OVCAR-8 ovarian, in the assay on SR leukemia, with SK-OV-3 ovarian and with K-562 leukemia was above 100 µM throughout.
As for `c1cc2nnc1SCCSCCCSCCS2`, the TGI in the assay with UACC-62 melanoma, in the assay with HOP-92 NSCLC, with HCT-15 colon, in the assay on SK-MEL-5 melanoma, in the assay on NCI/ADR-RES ovarian and in the assay with CAKI-1 renal was above 100 µM each time. Moreover, the TGI in the assay with U251 CNS is above 100 µM; with PC-3 prostate it was above 100 µM; with SK-MEL-2 melanoma, above 100 µM; in the assay with HOP-62 NSCLC, above 100 µM; in the assay on SNB-75 CNS, 41.2 µM; in the assay with IGROV1 ovarian, above 100 µM. For the same compound, the concentration for total growth inhibition (TGI) with OVCAR-8 ovarian, in the assay with SR leukemia, with SK-OV-3 ovarian, with UO-31 renal and in the assay on K-562 leukemia was above 100 µM each time.
In the case of `N#CC(C#N)=C(N)/C(C#N)=C/c1ccc(O)c(O)c1`, the TGI in the assay with UACC-62 melanoma, in the assay on HOP-92 NSCLC, in the assay with HCT-15 colon, with SK-MEL-5 melanoma, in the assay on NCI/ADR-RES ovarian and with CAKI-1 renal was above 100 µM in each case. The TGI in the assay on U251 CNS, in the assay on PC-3 prostate, with SK-MEL-2 melanoma, in the assay with HOP-62 NSCLC, in the assay on SNB-75 CNS and in the assay on IGROV1 ovarian was above 100 µM each time. Besides, the TGI with OVCAR-8 ovarian, with SR leukemia, in the assay on SK-OV-3 ovarian, in the assay on UO-31 renal and with K-562 leukemia was above 100 µM throughout.
`CNc1ccc(Cl)cc1C(=O)N1CCC[C@H]1CO`: the TGI in the assay on UACC-62 melanoma, in the assay with HOP-92 NSCLC, in the assay with HCT-15 colon, in the assay on NCI/ADR-RES ovarian, in the assay with CAKI-1 renal and in the assay with U251 CNS was above 100 µM in each case. The TGI in the assay with PC-3 prostate, in the assay with SK-MEL-2 melanoma, in the assay with HOP-62 NSCLC, in the assay on SNB-75 CNS, with IGROV1 ovarian and in the assay with OVCAR-8 ovarian was above 100 µM each time. Besides, the TGI with SR leukemia, in the assay on SK-OV-3 ovarian, with UO-31 renal and in the assay with K-562 leukemia was above 100 µM each time.
As to `CCC12CN(C(=O)OC)C3C(Br)C1CCC(=O)C32` (stereo not drawn), the TGI in the assay with UACC-62 melanoma, in the assay with HOP-92 NSCLC, with HCT-15 colon, in the assay on SK-MEL-5 melanoma, with NCI/ADR-RES ovarian and in the assay on CAKI-1 renal was above 100 µM in each case. For the same compound, the TGI in the assay on U251 CNS, in the assay with PC-3 prostate, with SK-MEL-2 melanoma, in the assay with HOP-62 NSCLC, with SNB-75 CNS and in the assay with IGROV1 ovarian was above 100 µM each time. Besides, the TGI with OVCAR-8 ovarian, with SR leukemia, in the assay with SK-OV-3 ovarian, with UO-31 renal and in the assay on K-562 leukemia was above 100 µM each time.
Take `COc1ccc(N2C(=O)C3c4[nH]c5ccc(OC)cc5c4C4CCC(c5ccccc5)CC4C3C2=O)cc1` (stereo not drawn): the TGI in the assay with UACC-62 melanoma is 36.4 µM; in the assay on HOP-92 NSCLC, 35.9 µM; in the assay with HCT-15 colon it was above 100 µM; in the assay on SK-MEL-5 melanoma, above 100 µM; in the assay with NCI/ADR-RES ovarian it was 33.2 µM; with CAKI-1 renal it was 40.6 µM. The TGI with U251 CNS was 22.8 µM; with PC-3 prostate it was above 75.7 µM; in the assay with SK-MEL-2 melanoma, 47.4 µM; with HOP-62 NSCLC, 20.8 µM; in the assay with SNB-75 CNS, 16.7 µM; in the assay with IGROV1 ovarian, 62.2 µM. For the same compound, the TGI in the assay on OVCAR-8 ovarian is above 49.2 µM; in the assay with SR leukemia, 2.45 µM; with SK-OV-3 ovarian it was 26.1 µM; in the assay with UO-31 renal, above 70.6 µM; with K-562 leukemia, above 43.9 µM.
